The text below walks through data of patent US9464084B2, “P2X7 modulators” (Janssen Pharmaceutica NV, priority 2013, dated 2016).

pIC50: −log10 of the molar value.

One test has as its target P2X7 (Homo sapiens (Human), UniProt Q99572). Kind of test: P2X7 antagonism in human PBMCs (LPS + Bz-ATP induced IL-1β release, ELISA).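 For all read-outs here: PBMCs from donor human blood, with a further 1.5 h incubation of the cells in the assay.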 The format is cell-based. The note with it: LPS 30 ng/ml, Bz-ATP 0.5 mM; for PBMC 10 μM (% control): compound 10 μM; for PBMC 1 μM (% control): compound 1 μM.
For a further test, the target named is rat P2X7 (Rattus norvegicus (Rat), UniProt Q64663). Put plainly: Ca2+ flux (FLIPR) in 1321N1 cells expressing recombinant rat P2X7 channel.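 Note: Calcium-4 dye fluorescence change read 180 s after agonist addition, following 30 min cell preincubation with test compound.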 The format is cell-based. Particulars: 250 μM BzATP.
Chain of rat P2X7 (Q64663 whole entry): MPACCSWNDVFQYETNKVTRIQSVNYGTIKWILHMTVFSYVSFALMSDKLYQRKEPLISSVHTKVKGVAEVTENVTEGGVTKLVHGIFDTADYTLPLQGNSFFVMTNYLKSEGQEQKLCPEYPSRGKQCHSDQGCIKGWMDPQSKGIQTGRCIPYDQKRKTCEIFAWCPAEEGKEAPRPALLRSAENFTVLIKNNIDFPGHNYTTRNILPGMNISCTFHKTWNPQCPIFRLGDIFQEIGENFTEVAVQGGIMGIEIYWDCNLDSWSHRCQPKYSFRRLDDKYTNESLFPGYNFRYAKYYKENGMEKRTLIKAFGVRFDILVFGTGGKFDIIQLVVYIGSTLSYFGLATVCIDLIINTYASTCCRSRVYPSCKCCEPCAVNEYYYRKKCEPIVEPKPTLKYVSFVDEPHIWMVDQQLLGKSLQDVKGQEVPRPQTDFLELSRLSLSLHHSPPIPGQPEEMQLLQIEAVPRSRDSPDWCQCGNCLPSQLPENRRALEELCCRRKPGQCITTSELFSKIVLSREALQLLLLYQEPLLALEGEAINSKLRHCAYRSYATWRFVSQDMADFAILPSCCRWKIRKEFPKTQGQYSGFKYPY

Chain of P2X7 (Q99572 whole entry): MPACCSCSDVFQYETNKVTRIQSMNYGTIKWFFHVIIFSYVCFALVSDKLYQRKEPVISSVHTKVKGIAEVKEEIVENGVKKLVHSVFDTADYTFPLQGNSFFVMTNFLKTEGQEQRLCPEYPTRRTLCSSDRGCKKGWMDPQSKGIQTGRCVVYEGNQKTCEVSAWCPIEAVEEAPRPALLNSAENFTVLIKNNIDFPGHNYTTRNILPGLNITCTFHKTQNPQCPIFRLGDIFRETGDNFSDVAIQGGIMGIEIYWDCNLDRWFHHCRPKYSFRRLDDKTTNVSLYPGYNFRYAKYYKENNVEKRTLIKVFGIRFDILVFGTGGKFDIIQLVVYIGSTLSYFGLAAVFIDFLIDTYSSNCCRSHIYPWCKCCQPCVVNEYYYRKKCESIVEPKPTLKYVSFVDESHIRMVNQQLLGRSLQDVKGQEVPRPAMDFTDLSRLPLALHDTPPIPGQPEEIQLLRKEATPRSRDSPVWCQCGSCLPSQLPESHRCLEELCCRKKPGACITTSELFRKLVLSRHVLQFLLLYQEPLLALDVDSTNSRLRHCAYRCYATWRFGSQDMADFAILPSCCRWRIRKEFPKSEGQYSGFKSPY

Take `CCOc1cccnc1-n1nnc2c1CCN(C(=O)c1cccc(C(F)(F)F)c1Cl)[C@@H]2C` (single isomer, unassigned) [Example 316, (R*)-(2-chloro-3-(trifluoromethyl)phenyl)(1-(3-ethoxypyridin-2-yl)-4-methyl-6,7-dihydro-1H-[1,2,3]triazolo[4,5-c]pyridin-5(4H)-yl)methanone]: the “PBMC 10 μM (% control)” value at P2X7 is listed as −9.6 % control. For the same compound, the pIC50 on rat P2X7 was 5.66.
Take `Cc1cc(C)nc(-n2nnc3c2CCN(C(=O)c2cccc(C(F)(F)F)c2Cl)C3C)n1` (stereo not drawn) [Example 253, (2-Chloro-3-(trifluoromethyl)phenyl)(1-(4,6-dimethylpyrimidin-2-yl)-4-methyl-6,7-dihydro-1H-[1,2,3]triazolo[4,5-c]pyridin-5(4H)-yl)methanone]: the “PBMC 10 μM (% control)” value on P2X7 is reported as −2.6 % control. At rat P2X7, the negative-log IC50 (pIC50) is 4.90.
On to `CC1c2ncn(-c3cnccn3)c2CCN1C(=O)c1cccc(C(F)(F)F)c1F` (stereo not drawn) [Example 14, (2-Fluoro-3-(trifluoromethyl)phenyl)(4-methyl-1-(pyrazin-2-yl)-6,7-dihydro-1H-imidazo[4,5-c]pyridin-5(4H)-yl)methanone], for which the “PBMC 1 μM (% control)” value at P2X7 worked out at 12.8 % control. The pIC50 on rat P2X7 was 6.85.
Take `CCOc1cccnc1-n1nnc2c1CCN(C(=O)c1cccc(C(F)(F)F)c1Cl)C2C` (stereo not drawn) [Example 258, (2-Chloro-3-(trifluoromethyl)phenyl)(1-(3-ethoxypyridin-2-yl)-4-methyl-6,7-dihydro-1H-[1,2,3]triazolo[4,5-c]pyridin-5(4H)-yl)methanone]: the “PBMC 10 μM (% control)” value on P2X7 is −3.2 % control. For the same compound, the pIC50 on rat P2X7 was 5.32.
Regarding `Cc1nc(-n2nnc3c2CCN(C(=O)c2cccc(C(F)(F)F)c2Cl)C3C)ncc1F` (stereo not drawn) [Example 230, (2-chloro-3-(trifluoromethyl)phenyl)(1-(5-fluoro-4-methylpyrimidin-2-yl)-4-methyl-6,7-dihydro-1H-[1,2,3]triazolo[4,5-c]pyridin-5(4H)-yl)methanone], the “PBMC 10 μM (% control)” value at P2X7 worked out at 2.9 % control. Also, at rat P2X7, the negative logarithm of the IC50 (pIC50) was 7.05.
As to `C[C@H]1Cc2c(nnn2-c2cc(F)ccn2)CN1C(=O)c1cccc(Cl)c1Cl` (single isomer, unassigned) [Example 196, (6S*)-5-[(2,3-Dichlorophenyl)carbonyl]-1-(4-fluoropyridin-2-yl)-6-methyl-4,5,6,7-tetrahydro-1H-[1,2,3]triazolo[4,5-c]pyridine], the “PBMC 10 μM (% control)” value at P2X7 was −3.1 % control. The pIC50 on rat P2X7 was 5.58.
For the compound `CC1c2nnn(-c3ncccc3F)c2CCN1C(=O)c1cccc(C(F)(F)F)c1Cl` (stereo not drawn) [Example 84, 5-{[2-Chloro-3-(trifluoromethyl)phenyl]carbonyl}-1-(3-fluoropyridin-2-yl)-4-methyl-4,5,6,7-tetrahydro-1H-[1,2,3]triazolo[4,5-c]pyridine], at P2X7, the “PBMC 10 μM (% control)” value amounted to 8.5 % control. For the same compound, on rat P2X7, the pIC50 is 6.73.
For `O=C(c1cccc(C(F)(F)F)c1Cl)N1C=Cc2c(nnn2-c2cnccn2)C1c1ccccc1` (stereo not drawn) [Example 76, 5-{[2-Chloro-3-(trifluoromethyl)phenyl]carbonyl}-4-phenyl-1-pyrazin-2-yl-4,5-dihydro-1H-[1,2,3]triazolo[4,5-c]pyridine], on P2X7, the “PBMC 1 μM (% control)” value turned out to be 1.6 % control. In addition, the negative-log IC50 (pIC50) on rat P2X7 was 7.49.
In the case of `O=C(c1cccc(Cl)c1Cl)N1CCc2c(-c3ccncc3)n[nH]c2C1` [Example 115, 6-[(2,3-Dichlorophenyl)carbonyl]-3-pyridin-4-yl-4,5,6,7-tetrahydro-2H-pyrazolo[3,4-c]pyridine], the “PBMC 10 μM (% control)” value at P2X7 is −3.3 % control. Besides, the pIC50 at rat P2X7 is below 5.00.
Consider `CC1c2ncn(-c3ccc(F)cn3)c2C=CN1C(=O)c1cccc(C(F)(F)F)c1Cl` (stereo not drawn) [Example 321, (2-chloro-3-(trifluoromethyl)phenyl)(1-(5-fluoropyridin-2-yl)-4-methyl-1H-imidazo[4,5-c]pyridin-5(4H)-yl)methanone], for which, at P2X7, the “PBMC 10 μM (% control)” value amounted to 14.1 % control. For the same compound, the pIC50 at rat P2X7 is 6.23.
Turning to `CC1Cc2c(nnn2-c2ccccn2)CN1C(=O)c1cccc(Cl)c1Cl` (stereo not drawn) [Example 120, 5-[(2,3-Dichlorophenyl)carbonyl]-6-methyl-1-pyridin-2-yl-4,5,6,7-tetrahydro-1H-[1,2,3]triazolo[4,5-c]pyridine], the “PBMC 10 μM (% control)” value on P2X7 was −3.8 % control. In addition, the negative logarithm of the IC50 (pIC50) at rat P2X7 was 7.25.
For `C[C@H]1c2ncn(-c3ccccn3)c2CCN1C(=O)c1cccc(Cl)c1Cl` (single isomer, unassigned) [Example 191, (S*)-(2,3-Dichlorophenyl)(4-methyl-1-(pyridin-2-yl)-6,7-dihydro-1H-imidazo[4,5-c]pyridin-5(4H)-yl)methanone], the “PBMC 10 μM (% control)” value at P2X7 is listed as 5.2 % control. In addition, on rat P2X7, the pIC50 was 5.89.
For `COc1ccnc(-n2nnc3c2CCN(C(=O)c2cccc(C(F)(F)F)c2Cl)C3)c1` [Example 136, (2-Chloro-3-(trifluoromethyl)phenyl)(1-(4-methoxypyridin-2-yl)-6,7-dihydro-1H-[1,2,3]triazolo[4,5-c]pyridin-5(4H)-yl)methanone] the same measures were 5.3 % control and 6.88.
Regarding `C[C@@H]1c2nnn(-c3ccn(CCF)n3)c2CCN1C(=O)c1cccc(C(F)(F)F)c1Cl` (single isomer, unassigned) [Example 171, (R*)-(2-Chloro-3-(trifluoromethyl)phenyl)(1-(1-(2-fluoroethyl)-1H-pyrazol-3-yl)-4-methyl-6,7-dihydro-1H-[1,2,3]triazolo[4,5-c]pyridin-5(4H)-yl)methanone], the “PBMC 10 μM (% control)” value at P2X7 is on record as 28.7 % control. Moreover, on rat P2X7, the negative logarithm of the IC50 (pIC50) was below 5.00.
Take `CCc1ccnc(-n2nnc3c2CCN(C(=O)c2cccc(C(F)(F)F)c2Cl)[C@@H]3C)n1` (single isomer, unassigned) [Example 294, (R*)-(2-chloro-3-(trifluoromethyl)phenyl)(1-(4-ethylpyrimidin-2-yl)-4-methyl-6,7-dihydro-1H-[1,2,3]triazolo[4,5-c]pyridin-5(4H)-yl)methanone]: at P2X7, the “PBMC 10 μM (% control)” value was −8.1 % control. In addition, the negative-log IC50 (pIC50) at rat P2X7 was 8.55.
In the same order, the values of `C[C@@H]1Cc2c(nnn2-c2cc(F)ccn2)CN1C(=O)c1cccc(Cl)c1Cl` (single isomer, unassigned) [Example 195, (6R*)-5-[(2,3-Dichlorophenyl)carbonyl]-1-(4-fluoropyridin-2-yl)-6-methyl-4,5,6,7-tetrahydro-1H-[1,2,3]triazolo[4,5-c]pyridine] are 14.4 % control and 7.97.
Take `Cc1ccc(-n2nnc3c2CCN(C(=O)c2cccc(C(F)(F)F)c2Cl)[C@@H]3C)nc1` (single isomer, unassigned) [Example 255, (R*)-(2-chloro-3-(trifluoromethyl)phenyl)(4-methyl-1-(5-methylpyridin-2-yl)-6,7-dihydro-1H-[1,2,3]triazolo[4,5-c]pyridin-5(4H)-yl)methanone]: the “PBMC 10 μM (% control)” value at P2X7 is −5.5 % control. In addition, on rat P2X7, the negative logarithm of the IC50 (pIC50) was 6.68.
Turning to `CCc1cccnc1-n1nnc2c1CCN(C(=O)c1cccc(C(F)(F)F)c1Cl)C2C` (stereo not drawn) [Example 254, (2-Chloro-3-(trifluoromethyl)phenyl)(1-(3-ethylpyridin-2-yl)-4-methyl-6,7-dihydro-1H-[1,2,3]triazolo[4,5-c]pyridin-5(4H)-yl)methanone], the “PBMC 10 μM (% control)” value at P2X7 is 0.9 % control. Besides, the negative-log IC50 (pIC50) at rat P2X7 is 5.37.
